Data as given in patent US12708630B2, “Combined therapy of 4′-thio-5-aza-2′-deoxycytidine and Venetoclax” (PINOTBIO, INC., priority 2021, dated 2026).

Key:
[1] = system: SW1417; test: drug activity profiling cytotoxicity; type: cell-based; conditions: Homo sapiens; SW1417 cell line, Colon; read-out: Aza-T-dCyd IC50
Experimental: (§1) To obtain a biomarker for Aza-T-dCyd, drug activity profiling analysis was performed to evaluate the cytotoxicity of 200 cell lines.
(§2) The drug responsiveness analysis of Aza-T-dCyd through drug activity profiling and genomic analysis of 200 cell lines confirmed the potent efficacy of Aza-T-dCyd in various solid tumors (Table 2).

[2] = system: Caki-2; test: drug activity profiling cytotoxicity; type: cell-based; conditions: Homo sapiens; Caki-2 cell line, Kidney; read-out: Aza-T-dCyd IC50
Experimental: as §1, §2

[3] = system: MDA MB 468; test: drug activity profiling cytotoxicity; type: cell-based; conditions: Homo sapiens; MDA MB 468 cell line, Breast; read-out: Aza-T-dCyd IC50
Experimental: as §1, §2

[4] = system: HuCCT1; test: drug activity profiling cytotoxicity; type: cell-based; conditions: Homo sapiens, HuCCT-1; HuCCT1 cell line, Liver; read-out: Aza-T-dCyd IC50
Experimental: as §1, §2

[5] = system: Hs 578T; test: drug activity profiling cytotoxicity; type: cell-based; conditions: Homo sapiens; Hs 578T cell line, Breast; read-out: Aza-T-dCyd IC50
Experimental: as §1, §2

[6] = system: Caki-1; test: drug activity profiling cytotoxicity; type: cell-based; conditions: Homo sapiens; Caki-1 cell line, Kidney; read-out: Aza-T-dCyd IC50
Experimental: as §1, §2

[7] = system: SK-MEL-28; test: drug activity profiling cytotoxicity; type: cell-based; conditions: Homo sapiens; SK-MEL-28 cell line, Skin (Melanoma); read-out: Aza-T-dCyd IC50
Experimental: as §1, §2

[8] = system: MG-63; test: drug activity profiling cytotoxicity; type: cell-based; conditions: Homo sapiens; MG-63 cell line, Bone (Osteosarcoma); read-out: Aza-T-dCyd IC50
Experimental: as §1, §2

[9] = system: BC-1; test: drug activity profiling cytotoxicity; type: cell-based; conditions: Homo sapiens, BC1; BC-1 cell line, B-cell lymphoma; read-out: Aza-T-dCyd IC50
Experimental: as §1, §2

[10] = system: ChaGoK1; test: drug activity profiling cytotoxicity; type: cell-based; conditions: Homo sapiens, ChaGo-K-1; ChaGoK1 cell line, Lung (NSCLC); read-out: Aza-T-dCyd IC50
Experimental: as §1, §2

[11] = system: SU.86.86; test: drug activity profiling cytotoxicity; type: cell-based; conditions: Homo sapiens; SU.86.86 cell line, Pancreas; read-out: Aza-T-dCyd IC50
Experimental: as §1, §2

[12] = system: HepG2; test: drug activity profiling cytotoxicity; type: cell-based; conditions: Homo sapiens; HepG2 cell line, Liver; read-out: Aza-T-dCyd IC50
Experimental: as §1, §2

[13] = system: A549; test: drug activity profiling cytotoxicity; type: cell-based; conditions: Homo sapiens; A549 cell line, Lung (NSCLC); read-out: Aza-T-dCyd IC50
Experimental: as §1, §2

[14] = system: T24; test: drug activity profiling cytotoxicity; type: cell-based; conditions: Homo sapiens, T-24; T24 cell line, Bladder; read-out: Aza-T-dCyd IC50
Experimental: as §1, §2

[15] = system: OVCAR3; test: drug activity profiling cytotoxicity; type: cell-based; conditions: Homo sapiens, OVCAR-3; OVCAR3 cell line, Female GU (Ovary); read-out: Aza-T-dCyd IC50
Experimental: as §1, §2

[16] = system: A388; test: drug activity profiling cytotoxicity; type: cell-based; conditions: A388 cell line, Skin (Head and Neck); read-out: Aza-T-dCyd IC50
Experimental: as §1, §2

[17] = system: SW872; test: drug activity profiling cytotoxicity; type: cell-based; conditions: Homo sapiens; SW872 cell line, Sarcoma; read-out: Aza-T-dCyd IC50
Experimental: as §1, §2

[18] = system: CFPAC-1; test: drug activity profiling cytotoxicity; type: cell-based; conditions: Homo sapiens; CFPAC-1 cell line, Pancreas; read-out: Aza-T-dCyd IC50
Experimental: as §1, §2

[19] = system: SK-NEP-1; test: drug activity profiling cytotoxicity; type: cell-based; conditions: Homo sapiens; SK-NEP-1 cell line, Kidney; read-out: Aza-T-dCyd IC50
Experimental: as §1, §2

[20] = system: C32TG; test: drug activity profiling cytotoxicity; type: cell-based; conditions: C32TG cell line, Skin (Melanoma); read-out: Aza-T-dCyd IC50
Experimental: as §1, §2

[21] = system: U-138MG; test: drug activity profiling cytotoxicity; type: cell-based; conditions: Homo sapiens, U138-MG; U-138MG cell line, CNS (Glioma); read-out: Aza-T-dCyd IC50
Experimental: as §1, §2

[22] = system: AsPC-1; test: drug activity profiling cytotoxicity; type: cell-based; conditions: Homo sapiens, ASPC1; AsPC-1 cell line, Pancreas; read-out: Aza-T-dCyd IC50
Experimental: as §1, §2

[23] = system: MDA MB 415; test: drug activity profiling cytotoxicity; type: cell-based; conditions: Homo sapiens; MDA MB 415 cell line, Breast; read-out: Aza-T-dCyd IC50
Experimental: as §1, §2

[24] = system: SW962; test: drug activity profiling cytotoxicity; type: cell-based; conditions: Homo sapiens, SW 962; SW962 cell line, Female GU (Vulva); read-out: Aza-T-dCyd IC50
Experimental: as §1, §2

[25] = system: Thp1; test: drug activity profiling cytotoxicity; type: cell-based; conditions: Homo sapiens, THP-1; Thp1 cell line, AML; read-out: Aza-T-dCyd IC50
Experimental: as §1, §2

[26] = system: MOLT-16; test: drug activity profiling cytotoxicity; type: cell-based; conditions: Homo sapiens; MOLT-16 cell line, ALL; read-out: Aza-T-dCyd IC50
Experimental: as §1, §2

[27] = system: 647-V; test: drug activity profiling cytotoxicity; type: cell-based; conditions: Homo sapiens; 647-V cell line, Bladder; read-out: Aza-T-dCyd IC50
Experimental: as §1, §2

[28] = system: Hs 729; test: drug activity profiling cytotoxicity; type: cell-based; conditions: Hs 729 cell line, Sarcoma; read-out: Aza-T-dCyd IC50
Experimental: as §1, §2

[29] = system: MHH-PREB-1; test: drug activity profiling cytotoxicity; type: cell-based; conditions: Homo sapiens; MHH-PREB-1 cell line, B-cell lymphoma; read-out: Aza-T-dCyd IC50
Experimental: as §1, §2

[30] = target: DNMT1 (Homo sapiens, UniProt P26358); test: Western blotting of Molm13 xenograft cancer tissues, DNMT1; type: in vivo; design: endogenous in cells; conditions: after administration
Sequence of DNMT1 (P26358 whole entry): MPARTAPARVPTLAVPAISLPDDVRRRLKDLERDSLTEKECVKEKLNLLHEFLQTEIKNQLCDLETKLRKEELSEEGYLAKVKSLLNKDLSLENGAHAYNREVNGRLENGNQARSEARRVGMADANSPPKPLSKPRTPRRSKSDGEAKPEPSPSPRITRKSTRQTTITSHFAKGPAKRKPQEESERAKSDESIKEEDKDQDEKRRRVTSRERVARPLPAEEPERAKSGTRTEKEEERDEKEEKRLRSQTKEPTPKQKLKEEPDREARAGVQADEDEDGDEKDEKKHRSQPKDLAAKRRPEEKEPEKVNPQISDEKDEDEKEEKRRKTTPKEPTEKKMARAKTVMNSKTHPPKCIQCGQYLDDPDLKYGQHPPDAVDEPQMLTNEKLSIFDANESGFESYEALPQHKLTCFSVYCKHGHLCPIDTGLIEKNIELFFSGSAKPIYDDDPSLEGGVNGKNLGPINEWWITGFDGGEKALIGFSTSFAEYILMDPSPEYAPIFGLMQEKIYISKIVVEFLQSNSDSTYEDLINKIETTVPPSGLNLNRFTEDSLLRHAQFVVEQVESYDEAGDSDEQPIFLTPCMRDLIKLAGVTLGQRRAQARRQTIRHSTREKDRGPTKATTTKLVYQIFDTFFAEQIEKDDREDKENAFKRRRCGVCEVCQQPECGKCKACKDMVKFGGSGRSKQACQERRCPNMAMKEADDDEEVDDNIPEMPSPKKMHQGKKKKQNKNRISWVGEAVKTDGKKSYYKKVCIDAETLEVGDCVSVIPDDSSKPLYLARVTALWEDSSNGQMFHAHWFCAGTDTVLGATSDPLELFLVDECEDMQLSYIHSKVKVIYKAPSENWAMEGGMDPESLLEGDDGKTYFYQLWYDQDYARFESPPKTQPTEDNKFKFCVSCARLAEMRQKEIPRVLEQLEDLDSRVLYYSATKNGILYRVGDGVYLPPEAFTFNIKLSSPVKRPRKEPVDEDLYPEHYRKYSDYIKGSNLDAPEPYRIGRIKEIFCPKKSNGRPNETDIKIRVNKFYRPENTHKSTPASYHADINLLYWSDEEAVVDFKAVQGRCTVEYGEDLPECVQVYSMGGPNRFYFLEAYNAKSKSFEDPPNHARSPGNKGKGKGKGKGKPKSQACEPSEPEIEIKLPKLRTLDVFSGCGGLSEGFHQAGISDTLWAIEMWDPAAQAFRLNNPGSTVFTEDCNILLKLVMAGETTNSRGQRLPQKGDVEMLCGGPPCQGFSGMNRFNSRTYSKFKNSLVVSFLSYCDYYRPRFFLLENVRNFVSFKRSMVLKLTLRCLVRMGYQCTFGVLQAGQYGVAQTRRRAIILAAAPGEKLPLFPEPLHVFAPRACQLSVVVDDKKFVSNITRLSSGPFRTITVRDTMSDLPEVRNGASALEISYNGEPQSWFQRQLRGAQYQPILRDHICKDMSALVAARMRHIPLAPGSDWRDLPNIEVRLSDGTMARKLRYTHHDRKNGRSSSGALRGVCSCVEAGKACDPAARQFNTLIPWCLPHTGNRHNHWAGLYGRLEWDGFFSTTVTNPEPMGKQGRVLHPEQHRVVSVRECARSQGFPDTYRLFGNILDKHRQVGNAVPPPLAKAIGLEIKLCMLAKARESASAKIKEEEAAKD

`Nc1ncn([C@H]2CC(O)[C@@H](CO)S2)c(=O)n1` (stereo partly drawn) [Aza-T-dCyd, 4′-thio-5-aza-2′-deoxycytidine] was tested. Which IC50 [1] did it give?
The IC50 was over 10000 nM.

What about the IC50 [2] of the same molecule?
Its IC50 is 363 nM.

And the IC50 [3]?
Its IC50 is 1340 nM.

And the IC50 [4]?
Its IC50 is 105 nM.

And the IC50 [5]?
The IC50 was over 10000 nM.

What about the IC50 [6] of the same molecule?
Its IC50 is 85.6 nM.

What about the IC50 [7] of the same molecule?
The IC50 was 2500 nM.

And the IC50 [8]?
The IC50 was 990 nM.

And the IC50 [9]?
Its IC50 is 338 nM.

And the IC50 [10]?
The IC50 was 3410 nM.

What about the IC50 [11] of the same molecule?
Its IC50 is 508 nM.

And the IC50 [12]?
The IC50 was 892 nM.

What about the IC50 [13] of the same molecule?
The IC50 was 190 nM.

What about the IC50 [14] of the same molecule?
The IC50 was 1530 nM.

What about the IC50 [15] of the same molecule?
The IC50 was 3440 nM.

What about the IC50 [16] of the same molecule?
Its IC50 is 190 nM.

And the IC50 [17]?
Its IC50 is 730 nM.

And the IC50 [18]?
Its IC50 is 1750 nM.

What about the IC50 [19] of the same molecule?
Its IC50 is over 10000 nM.

And the IC50 [20]?
Its IC50 is 953 nM.

And the IC50 [21]?
Its IC50 is over 10000 nM.

What about the IC50 [22] of the same molecule?
Its IC50 is 2120 nM.

What about the IC50 [23] of the same molecule?
The IC50 was over 10000 nM.

And the IC50 [24]?
Its IC50 is over 10000 nM.

And the IC50 [25]?
Its IC50 is 5120 nM.

What about the IC50 [26] of the same molecule?
The IC50 was 18.2 nM.

And the IC50 [27]?
The IC50 was 408 nM.

And the IC50 [28]?
Its IC50 is over 10000 nM.

And the IC50 [29]?
Its IC50 is 38.9 nM.

And the “DNMT1 in cancer tissues (Western blotting)” value [30]?
Its value is “strongly inhibited DNMT1 and DNMT3B in a concentration-dependent manner”.
